Assays:
esophagus = conditions: oral administration, patients; cited from earlier work
canine esophagus tissue = test: Esophageal irritation potential, dog model (esophageal infusion, histopathology); format: in vivo; conditions: for Esophageal irritation potential: low dosages on consecutive days (Group 7, Group 8)
Protocol: The esophageal irritation potential of the bisphosphonates is evaluated using a dog model.
The following solutions are prepared:
(1) simulated gastric juice (pH about 2), i.e. the control solution.
(5) simulated gastric juice (pH about 2) containing about 0.20 mg/mL of risedronate sodium on a risedronic acid active basis.
(6) simulated gastric juice (pH about 2) containing about 4.0 mg/mL of tiludronate disodium on a tiludronic acid active basis.
The simulated gastric juice is prepared by dissolving about 960 mg of pepsin (L-585,228000B003, Fisher Chemical) in about 147 mL of 0.90 (wt %) NaCl (aqueous), adding about 3 mL of 1.0 M HCl (aqueous), and adjusting the volume to about 300 mL with deionized water. The pH of the resulting solution is measured and if necessary is adjusted to about 2 using 1.0 M HCl (aqueous) or 1.0 M NaOH (aqueous).
The animals used in the experiments are anesthetized and administered about 50 mL of the appropriate solution over about 30 minutes by infusion into the esophagus using an infusion pump and a rubber catheter. The following treatment experiments are run:
Group 1: This control group contains four animals. Each animal is administered a dosage of about 50 mL of simulated gastric juice [solution (1)] on each of five consecutive days. […]
Group 2: This group contains four animals. […]
Group 3: This group contains five animals. […] The animals are sacrificed about 24 hours after the dose is administered.
Group 4: This group contains five animals. […] The animals are sacrificed about 7 days after the dose is administered.
Group 5: This group contains six animals. […] The animals are administered a total of four dosages. The animals are sacrificed about 7 days after the last dose is administered.
Group 6: This group contains six animals. […] The animals are administered a total of eight dosages. The animals are sacrificed about four days after the last dose is administered.
Group 7: This group contains eight animals. Each animal is administered a dosage of about 50 mL of simulated gastric juice containing about 0.20 mg/mL of risedronate [solution (5)] on each of five consecutive days. […]
Group 8: This group contains four animals. Each animal is administered a dosage of about 50 mL of simulated gastric juice containing about 4.0 mg/mL of tiludronate [solution (6)] on each of five consecutive days. […]
The esophagus from each sacrificed animal is removed and prepared for histopathology using standard techniques by embedding the tissue in paraffin, staining with hematoxylin and eosin. The sections are examined microscopically.

bone mineralization = conditions: doses used clinically; cited from earlier work
bone resorption = conditions: early postmenopausal bone loss (Mortensen et al.); cited from earlier work
[1] = Group 4: 0.80 mg/mL, 1X, sacrifice 7 days after dosing

NCCC(O)(P(=O)(O)O)P(=O)(O)O [pamidronate, 3-amino-1-hydroxypropylidene-1,1-bisphosphonic acid]
Adverse gastrointestinal (esophageal) effects associated with use (esophagus): associated with esophageal ulcers

O=P(O)(O)C(Sc1ccc(Cl)cc1)P(=O)(O)O [Tiludronate, (4-chlorophenyl)thiomethane-1,1-disphosphonic acid]
Histo-pathology (esophagus) (canine esophagus tissue; Group 8 (n = 4): 4.0 mg/mL, about 50 mL in simulated gastric juice, 1X daily for 5 days, sacrifice 24 hours after last dosing (table; text: immediately)): Slight submucosal
Histo-pathology (esophagus) (canine esophagus tissue; Group 8 (n = 4): 4.0 mg/mL, about 50 mL in simulated gastric juice, 1X daily for 5 days, sacrifice 24 hours after last dosing (table; text: immediately), listed as tiludronate): slight ulceration of the epithelial surface and slight submucosal inflammation and vacuolation
Animals with slight submucosal inflammation and vacuolation (canine esophagus tissue; Group 8: 4.0 mg/mL, 1X daily for 5 days): vacuolation (3 of 4
Esophageal irritation potential (canine esophagus tissue): high

CC(O)(P(=O)(O)O)P(=O)(O)O [etidronate, 1-hydroxyethane-1,1-diphosphonic acid]
Effect on bone mineralization (bone mineralization): impairs mineralization at doses used clinically

NCCCC(O)(P(=O)(O)O)P(=O)(O)O [Alendronate, 4-amino-1-hydroxybutylidene-1,1-bisphosphonic acid monosodium trihydrate]
Adverse gastrointestinal (esophageal) effects associated with use (esophagus): associated with esophagitis and/or esophageal ulcers
Histo-pathology (esophagus) (canine esophagus tissue; Group 2 (n = 4): 0.20 mg/mL, about 50 mL in simulated gastric juice pH about 2, 1X daily for 5 days, sacrifice immediately after last dosing, listed as alendronate, monosodium trihydrate): deep ulceration of the epithelial surface and marked submucosal inflammation and vacuolation
Histo-pathology (esophagus) (canine esophagus tissue; Group 3 (n = 5): 0.80 mg/mL, about 50 mL in simulated gastric juice, 1X, sacrifice 24 hours after dosing, listed as alendronate, monosodium trihydrate): intact epithelial surface with very slight submucosal inflammation and vacuolation
Histo-pathology (esophagus) (canine esophagus tissue; Group 3 (n = 5): 0.80 mg/mL, about 50 mL in simulated gastric juice, 1X, sacrifice 24 hours after dosing, monosodium trihydrate): Intact epithelial
Histo-pathology (esophagus) (canine esophagus tissue; Group 4 (n = 5): 0.80 mg/mL, about 50 mL in simulated gastric juice, 1X, sacrifice 7 days after dosing, listed as alendronate, monosodium trihydrate): intact epithelium with either minimal inflammation (two of the five animals) or no inflammation (three of the five animals) and no vacuolation
Animals with minimal inflammation (canine esophagus tissue; [1]): inflammation (2 of 5
Animals with no inflammation (canine esophagus tissue; [1]): inflammation (3 of 5
Histo-pathology (esophagus) (canine esophagus tissue; Group 5 (n = 6): 0.80 mg/mL, about 50 mL in simulated gastric juice, 1X weekly for a total of 4 doses, sacrifice 7 days after last dosing, listed as alendronate, monosodium trihydrate): normal with an intact epithelium and absence of inflammatory cells in the submucosa
Histo-pathology (esophagus) (canine esophagus tissue; Group 5 (n = 6): 0.80 mg/mL, about 50 mL in simulated gastric juice, 1X weekly for a total of 4 doses, sacrifice 7 days after last dosing, monosodium trihydrate): Intact epithelium with
Histo-pathology (esophagus) (canine esophagus tissue; Group 6 (n = 6): 0.40 mg/mL, about 50 mL in simulated gastric juice, 2X weekly for 4 weeks, sacrifice immediately after last dosing (table; text: about four days after), listed as alendronate, monosodium trihydrate): deep ulceration of the epithelial surface and marked submucosal inflammation and vacuolation

O=P(O)(O)C(O)(Cc1cccnc1)P(=O)(O)O [Risedronate, 1-hydroxy-2-(3-pyridinyl)-ethylidene-1,1-bisphosphonic acid]
Histo-pathology (esophagus) (canine esophagus tissue; Group 7 (n = 8): 0.20 mg/mL, about 50 mL in simulated gastric juice, 1X daily for 5 days, sacrifice immediately after last dosing, listed as risedronate): deep ulceration of the epithelial surface and marked submucosal inflammation and vacuolation
Animals with deep ulceration of epithelial surface (canine esophagus tissue; Group 7: 0.20 mg/mL, 1X daily for 5 days, sacrifice immediately after last dosing): (4 of 8 animals).
Esophageal irritation potential (canine esophagus tissue): high
Antiresorptive efficacy of cyclic dosing relative to continuous daily dosing (bone resorption): cyclic dosing is actually less effective than continuous daily dosing
